Experimental data as given in ChEMBL document CHEMBL3994622, “Design and synthesis of new RAF kinase-inhibiting antiproliferative quinoline derivatives. Part 2: Diarylurea derivatives” (Eur J Med Chem, 2017).

Key:
Format in all cases: functional
OVCAR-4 [1] = assay: Growth inhibition of human OVCAR4 cells assessed as cell growth at 0.003 uM incubated for 48 hrs by sulforhodamine B assay relative to control; conditions: OVCAR-4, 48 h, read-out: Activity
BT-549 [2] = assay: Growth inhibition of human BT549 cells assessed as cell growth at 0.003 uM incubated for 48 hrs by sulforhodamine B assay relative to control; conditions: BT-549, 48 h, read-out: Activity
UO-31 = assay: Growth inhibition of human UO31 cells assessed as cell growth at 0.03 uM incubated for 48 hrs by sulforhodamine B assay relative to control; conditions: UO-31, 48 h, read-out: Activity
NCI-H23 = assay: Growth inhibition of human NCI-H23 cells assessed as cell growth at 3 uM incubated for 48 hrs by sulforhodamine B assay relative to control; conditions: NCI-H23, 48 h, read-out: Activity
SNB-19 = assay: Growth inhibition of human SNB19 cells assessed as cell growth at 0.3 uM incubated for 48 hrs by sulforhodamine B assay relative to control; conditions: SNB-19, 48 h, read-out: Activity
NCI-H460 = assay: Growth inhibition of human NCI-H460 cells assessed as cell growth at 3 uM incubated for 48 hrs by sulforhodamine B assay relative to control; conditions: NCI-H460, 48 h, read-out: Activity
SK-OV-3 [3] = assay: Growth inhibition of human SKOV3 cells assessed as cell growth at 3 uM incubated for 48 hrs by sulforhodamine B assay relative to control; conditions: SK-OV-3, 48 h, read-out: Activity
SK-MEL-5 = assay: Growth inhibition of human SK-MEL-5 cells assessed as cell growth at 3 uM incubated for 48 hrs by sulforhodamine B assay relative to control; conditions: SK-MEL-5, 48 h, read-out: Activity
UACC-62 [4] = assay: Growth inhibition of human UACC62 cells assessed as cell growth at 0.3 uM incubated for 48 hrs by sulforhodamine B assay relative to control; conditions: UACC-62, 48 h, read-out: Activity
KM12 = assay: Growth inhibition of human KM12 cells assessed as cell growth at 0.03 uM incubated for 48 hrs by sulforhodamine B assay relative to control; conditions: KM12, 48 h, read-out: Activity
SNB-75 = assay: Growth inhibition of human SNB75 cells assessed as cell growth at 0.03 uM incubated for 48 hrs by sulforhodamine B assay relative to control; conditions: SNB-75, 48 h, read-out: Activity
HCT-15 [5] = assay: Growth inhibition of human HCT15 cells assessed as cell growth at 0.03 uM incubated for 48 hrs by sulforhodamine B assay relative to control; conditions: HCT-15, 48 h, read-out: Activity
DU-145 = assay: Growth inhibition of human DU145 cells assessed as cell growth at 0.003 uM incubated for 48 hrs by sulforhodamine B assay relative to control; conditions: DU-145, 48 h, read-out: Activity
NCI-H322M = assay: Growth inhibition of human NCI-H322M cells assessed as cell growth at 3 uM incubated for 48 hrs by sulforhodamine B assay relative to control; conditions: read-out: Activity
MOLT-4 = assay: Growth inhibition of human MOLT4 cells assessed as cell growth at 30 uM incubated for 48 hrs by sulforhodamine B assay relative to control; conditions: MOLT-4, 48 h, read-out: Activity
HT-29 = assay: Growth inhibition of human HT-29 cells assessed as cell growth at 0.003 uM incubated for 48 hrs by sulforhodamine B assay relative to control; conditions: HT-29, 48 h, read-out: Activity
CAKI-1 = assay: Growth inhibition of human Caki1 cells assessed as cell growth at 0.003 uM incubated for 48 hrs by sulforhodamine B assay relative to control; conditions: CAKI-1, 48 h, read-out: Activity
SF-295 = assay: Growth inhibition of human SF295 cells assessed as cell growth at 0.003 uM incubated for 48 hrs by sulforhodamine B assay relative to control; conditions: SF-295, 48 h, read-out: Activity
BT-549 [6] = assay: Growth inhibition of human BT549 cells assessed as cell growth at 0.03 uM incubated for 48 hrs by sulforhodamine B assay relative to control; conditions: BT-549, 48 h, read-out: Activity
OVCAR-3 [7] = assay: Growth inhibition of human OVCAR3 cells assessed as cell growth at 0.01 uM incubated for 48 hrs by sulforhodamine B assay relative to control; conditions: OVCAR-3, 48 h, read-out: Activity
CCRF-CEM = assay: Growth inhibition of human CCRF-CEM cells assessed as cell growth at 0.1 uM incubated for 48 hrs by sulforhodamine B assay relative to control; conditions: read-out: Activity
A498 = assay: Growth inhibition of human A498 cells assessed as cell growth at 0.01 uM incubated for 48 hrs by sulforhodamine B assay relative to control; conditions: A498, 48 h, read-out: Activity
OVCAR-3 [8] = assay: Growth inhibition of human OVCAR3 cells assessed as cell growth at 100 uM incubated for 48 hrs by sulforhodamine B assay relative to control; conditions: OVCAR-3, 48 h, read-out: Activity
OVCAR-4 [9] = assay: Growth inhibition of human OVCAR4 cells assessed as cell growth at 100 uM incubated for 48 hrs by sulforhodamine B assay relative to control; conditions: OVCAR-4, 48 h, read-out: Activity
SN12C = assay: Growth inhibition of human SN12C cells assessed as cell growth at 1 uM incubated for 48 hrs by sulforhodamine B assay relative to control; conditions: read-out: Activity
HOP-62 = assay: Growth inhibition of human HOP62 cells assessed as cell growth at 10 uM incubated for 48 hrs by sulforhodamine B assay relative to control; conditions: HOP-62, 48 h, read-out: Activity
SR = assay: Growth inhibition of human SR cells assessed as cell growth at 1 uM incubated for 48 hrs by sulforhodamine B assay relative to control; conditions: read-out: Activity
OVCAR-5 = assay: Growth inhibition of human OVCAR5 cells assessed as cell growth at 10 uM incubated for 48 hrs by sulforhodamine B assay relative to control; conditions: OVCAR-5, 48 h, read-out: Activity
SK-OV-3 [10] = assay: Growth inhibition of human SKOV3 cells assessed as cell growth at 0.01 uM incubated for 48 hrs by sulforhodamine B assay relative to control; conditions: SK-OV-3, 48 h, read-out: Activity
UACC-62 [11] = assay: Growth inhibition of human UACC62 cells assessed as cell growth at 10 uM incubated for 48 hrs by sulforhodamine B assay relative to control; conditions: UACC-62, 48 h, read-out: Activity
PC-3 = assay: Growth inhibition of human PC3 cells assessed as cell growth at 1 uM incubated for 48 hrs by sulforhodamine B assay relative to control; conditions: PC-3, 48 h, read-out: Activity
SW-620 = assay: Growth inhibition of human SW620 cells assessed as cell growth at 0.01 uM incubated for 48 hrs by sulforhodamine B assay relative to control; conditions: SW-620, 48 h, read-out: Activity
RPMI-8226 = assay: Growth inhibition of human RPMI8226 cells assessed as cell growth at 0.01 uM incubated for 48 hrs by sulforhodamine B assay relative to control; conditions: RPMI-8226, 48 h, read-out: Activity
HCT-15 [12] = assay: Growth inhibition of human HCT15 cells assessed as cell growth at 1 uM incubated for 48 hrs by sulforhodamine B assay relative to control; conditions: HCT-15, 48 h, read-out: Activity

COc1cc2cc(Oc3ccc(NC(=O)Nc4ccc(Cl)c(C(F)(F)F)c4)cc3)c(C)nc2cc1OC
growth at 0.003 µM (OVCAR-4 [1]): 93% | growth at 0.003 µM (BT-549 [2]): 98% | growth at 0.03 µM (UO-31): 89% | growth at 3 µM (NCI-H23): 5% | growth at 0.3 µM (SNB-19): 96% | growth at 3 µM (NCI-H460): 3% | growth at 3 µM (SK-OV-3 [3]): 17% | growth at 3 µM (SK-MEL-5): -20% | growth at 0.3 µM (UACC-62 [4]): 81% | growth at 0.03 µM (KM12): 93% | growth at 0.03 µM (SNB-75): 84% | growth at 0.03 µM (HCT-15 [5]): 93% | growth at 0.003 µM (DU-145): 100% | growth at 3 µM (NCI-H322M): 35% | growth at 30 µM (MOLT-4): -36% | growth at 0.003 µM (HT-29): 97% | growth at 0.003 µM (CAKI-1): 93% | growth at 0.003 µM (SF-295): 90% | growth at 0.03 µM (BT-549 [6]): 83%

COc1cc2cc(Oc3ccc(NC(=O)Nc4ccc(Cl)c(Cl)c4)cc3)c(C)nc2cc1OC
growth at 0.01 µM (OVCAR-3 [7]): 109% | growth at 0.1 µM (CCRF-CEM): 104% | growth at 0.01 µM (A498): 82% | growth at 100 µM (OVCAR-3 [8]): -98% | growth at 100 µM (OVCAR-4 [9]): -85% | growth at 1 µM (SN12C): 85% | growth at 10 µM (HOP-62): 8% | growth at 1 µM (SR): 98% | growth at 10 µM (OVCAR-5): 50% | growth at 0.01 µM (SK-OV-3 [10]): 103% | growth at 10 µM (UACC-62 [11]): 25% | growth at 1 µM (PC-3): 67% | growth at 0.01 µM (SW-620): 101% | growth at 0.01 µM (RPMI-8226): 100% | growth at 1 µM (HCT-15 [12]): 88%

Cc1nc2cc(O)c(O)cc2cc1Oc1ccc(NC(=O)Nc2ccc(Cl)c(Cl)c2)cc1
growth at 0.003 µM (OVCAR-4 [1]): 97% | growth at 0.003 µM (BT-549 [2]): 91% | growth at 0.03 µM (UO-31): 98% | growth at 3 µM (NCI-H23): 87% | growth at 0.3 µM (SNB-19): 117% | growth at 3 µM (NCI-H460): 96% | growth at 3 µM (SK-OV-3 [3]): 103% | growth at 3 µM (SK-MEL-5): 85% | growth at 0.3 µM (UACC-62 [4]): 100% | growth at 0.03 µM (KM12): 103% | growth at 0.03 µM (SNB-75): 81% | growth at 0.03 µM (HCT-15 [5]): 98% | growth at 0.003 µM (DU-145): 105% | growth at 3 µM (NCI-H322M): 105% | growth at 30 µM (MOLT-4): 2% | growth at 0.003 µM (HT-29): 103% | growth at 0.003 µM (CAKI-1): 97% | growth at 0.003 µM (SF-295): 93% | growth at 0.03 µM (BT-549 [6]): 94%

COc1cc2cc(Oc3ccc(NC(=O)Nc4cc(C(F)(F)F)cc(C(F)(F)F)c4)cc3)c(C)nc2cc1OC
growth at 0.01 µM (OVCAR-3 [7]): 104% | growth at 0.1 µM (CCRF-CEM): 97% | growth at 0.01 µM (A498): 97% | growth at 100 µM (OVCAR-3 [8]): -89% | growth at 100 µM (OVCAR-4 [9]): -52% | growth at 1 µM (SN12C): 35% | growth at 10 µM (HOP-62): -82% | growth at 1 µM (SR): 69% | growth at 10 µM (OVCAR-5): -58% | growth at 0.01 µM (SK-OV-3 [10]): 91% | growth at 10 µM (UACC-62 [11]): -74% | growth at 1 µM (PC-3): 27% | growth at 0.01 µM (SW-620): 100% | growth at 0.01 µM (RPMI-8226): 98% | growth at 1 µM (HCT-15 [12]): 41%
